Results published in patent publication US20240116875A1, “RATIONAL DESIGN, OPTIMIZATION, AND BIOLOGICAL EVALUATION OF NOVEL MEK4 INHIBITORS AGAINST PANCREATIC ADENOCARCINOMA” (NORTHWESTERN UNIVERSITY, priority 2022, published 2024).
pIC50: −log10 of the molar value. Where “and” joins values, the source holds several entries; their conditions need not be identical. Equal values may be shown once. Read-outs that look alike come from different tables or passages of the source.

Assays:
[1] = tested on: phospho-p42/44 MAPK in HEK293T cells; assay: p42/44 MAPK (ERK1/2) phosphorylation, western blotting, HEK293T; type: cell-based, human; conditions: anisomycin alone
Procedure: (§1) HSP90 was used as loading control. The blots are representative of at least three biological replicates.
(§2) We next evaluated the effects of our inhibitors on the phosphorylation activity and expression of MEK1/2, MEK3/6, and MEK7. […] We also evaluated the effects on p42/44 MAPK (ERK1/2), which functions downstream of MEK1/2.
(§3) Whole cell extracts of cultured cells were prepared in radioimmunoprecipitation (RIPA) lysis buffer supplemented with phosphatase and protease inhibitors (Calbiochem). Protein concentration was determined by the bicinchoninic acid assay (BCA) (ThermoFisher) and separated by the SDS-PAGE technique. […] Secondary anti-mouse IgG (A4416) and anti-rabbit IgG (A6667) antibodies were purchased from Sigma-Aldrich and used a 1:4000 dilution. Images of blots were acquired on HyBlot ES Autoradiography Film (Thomas Scientific, Swedesboro, NJ, USA) following incubation with SuperSignal West Pico PLUS (ThermoFisher).

[2] = tested on: phospho-p38 MAPK in HEK293T cells; assay: p38 MAPK phosphorylation, western blotting, HEK293T; type: cell-based, human; conditions: anisomycin alone
Procedure: as §1, §2, §3

[3] = target: T1, MEK7 (Homo sapiens, UniProt O14733); assay: ADP-Glo kinase activity assay, MEK7; type: biochemical
T1 construct: purchased Carna Biosciences
T1 sequence (O14733 1-419): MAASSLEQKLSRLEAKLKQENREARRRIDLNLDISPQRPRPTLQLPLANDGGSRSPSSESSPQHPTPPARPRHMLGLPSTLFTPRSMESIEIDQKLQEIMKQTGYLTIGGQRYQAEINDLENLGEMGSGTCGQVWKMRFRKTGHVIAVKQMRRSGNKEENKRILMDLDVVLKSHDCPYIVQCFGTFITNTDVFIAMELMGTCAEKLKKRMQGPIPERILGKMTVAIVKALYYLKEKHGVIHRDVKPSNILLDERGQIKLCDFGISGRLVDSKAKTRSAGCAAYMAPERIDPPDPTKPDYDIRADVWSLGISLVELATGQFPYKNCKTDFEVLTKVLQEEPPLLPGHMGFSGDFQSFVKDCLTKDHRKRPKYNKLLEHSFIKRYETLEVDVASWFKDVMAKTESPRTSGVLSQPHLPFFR
Procedure: The compounds were then evaluated both in vitro and in a cellular system. When studying kinase inhibitors, there are a multitude of ways to evaluate selectivity across kinases.
(§4) Procedure for a 5 μL Kinase reaction using the ADP-Glo Kinase Assay Kit from Promega. Staurosporine was used as the positive control, and DMSO as the negative control. Activity of recombinant active full-length human MEK4 (Carna Biosciences) was measured using the ADP-Glo assay with recombinant full-length human p38α (MAPK14). Kinase reactions with MEK7 (Carna Biosciences) were done at the same concentration and amounts with recombinant full-length human p38α (MAPK14).
(§5) For each well, 4 ng of MEK4 and 600 ng of p38α in Kinase buffer (CST) were used, and 1 μL of this mixture was dispensed per well.
(§6) Inhibitor was prepared in a DMSO solution. A dose response dilution was done in a 384-well Echo transfer plate. […] This mixture was allowed to incubate for 30 minutes at room temperature.
(§7) Using a Mantis, 1 μL, of an 8 μM ATP solution was added to each well, and the plate was allowed to incubate for another 1 hour at room temperature. […] All experiments were done in triplicate on the plate, and at least in one separate technical duplicate.

[4] = target: T2, recombinant active full-length human MEK4 (Homo sapiens, UniProt P45985); assay: ADP-Glo kinase activity assay, MEK4; type: biochemical
T2 construct: recombinant active full-length human MEK4 (Carna Biosciences); purchased Carna Biosciences
T2 sequence (P45985 1-399): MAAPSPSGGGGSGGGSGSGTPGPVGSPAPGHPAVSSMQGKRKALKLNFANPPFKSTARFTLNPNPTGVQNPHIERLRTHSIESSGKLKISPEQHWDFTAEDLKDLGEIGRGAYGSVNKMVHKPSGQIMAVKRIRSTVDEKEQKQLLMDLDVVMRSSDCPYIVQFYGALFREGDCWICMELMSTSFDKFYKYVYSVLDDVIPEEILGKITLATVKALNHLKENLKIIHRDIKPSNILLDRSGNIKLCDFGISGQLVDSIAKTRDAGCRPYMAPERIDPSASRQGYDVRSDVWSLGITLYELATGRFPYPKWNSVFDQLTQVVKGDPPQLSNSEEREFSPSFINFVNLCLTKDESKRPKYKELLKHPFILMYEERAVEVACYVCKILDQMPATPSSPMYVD
Procedure: as §4, §5, §6, §7

[5] = tested on: phospho-p42/44 MAPK in MiaPaCa2 cells; assay: p42/44 MAPK phosphorylation, western blotting, MiaPaCa2; type: cell-based, human; conditions: MiaPaCa2, U0126 1 μM or 5 μM
Procedure: (§8) The effects of different treatments on phospho-p42/44 MAPK and total p42/44 MAPK expression levels were determined by western blotting. HSP90 was used as loading control. The blots are representative of at least three biological replicates.
as §3

[6] = tested on: phospho-p42/44 MAPK in CD18 cells; assay: p42/44 MAPK phosphorylation, western blotting, CD18; type: cell-based, human; conditions: CD18, U0126 1 μM or 5 μM, 1 hour pretreatment
Procedure: as §8, §3

[7] = headline value per compound, read-out: MEK7 IC50
[8] = individual experiment, values in brackets, n=3, read-out: MEK7 IC50 of each experiment (IC50±SEM)
[9] = headline value per compound, read-out: IC50 (MEK4, ADP-Glo)
[10] = individual experiment, values in brackets, n=3, read-out: IC50 of each experiment (IC50±SEM), MEK4

SMILES	pIC50 [3, 7]	pIC50 [3, 8]	pIC50 [4, 9]	further results
COc1ccc(C[C@H]2NC[C@H](O)[C@H]2OC(C)=O)cc1 [anisomycin, reference compound]	–	–	–	effect of anisomycin on p42/44 MAPK phosphorylation [1]: decreases p42/44 MAPK phosphorylation; effect of anisomycin on p38 MAPK phosphorylation [2]: did induce phosphorylation
C=CC(=O)Nc1ccccc1-c1n[nH]c2cc(F)ccc12 [Compound 8d, N-(2-(6-fluoro-1H-indazol-3-yl)phenyl)acrylamide]	–	–	< 4.10	–
CC(C)Oc1ccc(NS(=O)(=O)c2cccc(-c3n[nH]c4cc(F)ccc34)c2)cc1 [Compound 15i, 3-(6-fluoro-1H-indazol-3-yl)-N-(4-isopropoxyphenyl)benzenesulfonamide]	5.54	5.74 and 5.66 and 5.32	–	–
O=S(=O)(Nc1ccc(-c2n[nH]c3cc(F)ccc23)cc1)c1cccnc1 [Compound 11a, N-(4-(6-fluoro-1H-indazol-3-yl)phenyl)pyridine-3-sulfonamide]	5.57	5.72 and 5.46	–	–
CS(=O)(=O)c1ccc(NS(=O)(=O)c2cccc(-c3n[nH]c4cc(F)ccc34)c2)cc1 [Compound 15l]	6.04	6.23 and 6.11 and 5.85	–	–
Nc1ccccc1-c1n[nH]c2cc(F)ccc12 [Compound 8b, 2-(6-fluoro-1H-indazol-3-yl)aniline]	–	–	< 4.10	–
Cc1ccc2c(-c3ccc(S(N)(=O)=O)cc3)n[nH]c2c1 [Compound S4, 4-(6-methyl-1H-indazol-3-yl)benzenesulfonamide]	–	–	5.57	pIC50 [4, 10]: 5.80 and 5.43
N#CC(=C(/N)Sc1ccccc1N)/C(C#N)=C(\N)Sc1ccccc1N [Compound U0126, reference compound]	–	–	–	effect of U0126 on p42/44 MAPK phosphorylation [5]: decreased p42/44 MAPK phosphorylation; effect of U0126 co-treatment on p42/44 MAPK phosphorylation increased by 15o and 10e [6]: suppressed
CC(=O)c1ccc(NS(=O)(=O)c2cccc(-c3n[nH]c4cc(F)ccc34)c2)cc1 [Compound 15n, N-(4-acetylphenyl)-3-(6-fluoro-1H-indazol-3-yl)benzenesulfonamide]	–	6.13 and 5.89 and 5.74	–	–
O=S(=O)(NC1CC1)c1ccc(-c2n[nH]c3cc(F)ccc23)cc1 [Compound 13c, N-cyclopropyl-4-(6-fluoro-1H-indazol-3-yl)benzenesulfonamide]	5.06	5.09 and 5.03	–	–
Fc1ccc2c(-c3ccc4c(c3)OCO4)nn(Cc3ccccc3)c2c1 [Compound S3, 3-(benzo[d][1,3]dioxol-5-yl)-1-benzyl-6-fluoro-1H-indazole]	–	–	< 4.10	–

Second part, led by results:

pIC50 [3, 7]	pIC50 [3, 8]	pIC50 [4, 9]	SMILES	further results
5.19	5.25 and 5.15	–	O=S(=O)(Nc1cccc(-c2n[nH]c3cc(F)ccc23)c1)C1CC1 [Compound 12c, N-(3-(6-fluoro-1H-indazol-3-yl)phenyl)cyclopropanesulfonamide]	–
6.08	6.40 and 6.21 and 5.82	–	O=S(=O)(Nc1ccccc1)c1cccc(-c2n[nH]c3cc(F)ccc23)c1 [Compound 14a, 3-(6-fluoro-1H-indazol-3-yl)-N-phenylbenzenesulfonamide]	–
–	–	< 4.10	Cn1nc(-c2ccc3c(c2)OCO3)c2ccc(F)cc21 [Compound S2, 3-(benzo[d][1,3]dioxol-5-yl)-6-fluoro-1-methyl-1H-indazole]	–
–	–	< 4.10	CCC(=O)Nc1ccccc1-c1n[nH]c2cc(F)ccc12 [Compound 8c, N-(2-(6-fluoro-1H-indazol-3-yl)phenyl)propionamide]	–
–	–	5.43	NS(=O)(=O)c1ccc(-c2n[nH]c3cc(C(F)(F)F)ccc23)cc1 [Compound S5, 4-(6-(trifluoromethyl)-1H-indazol-3-yl)benzenesulfonanamide]	pIC50 [4, 10]: 5.66 and 5.28
5.89	6.03 and 5.80	–	O=S(=O)(Nc1cccc(-c2n[nH]c3cc(F)ccc23)c1)c1cccnc1 [Compound 12a, N-(3-(6-fluoro-1H-indazol-3-yl)phenyl)pyridine-3-sulfonamide]	–
